The experiment has as its target T1, Protein mono-ADP-ribosyltransferase TIPARP (Homo sapiens, UniProt Q7Z3E1).
T1 sequence (Q7Z3E1 whole entry): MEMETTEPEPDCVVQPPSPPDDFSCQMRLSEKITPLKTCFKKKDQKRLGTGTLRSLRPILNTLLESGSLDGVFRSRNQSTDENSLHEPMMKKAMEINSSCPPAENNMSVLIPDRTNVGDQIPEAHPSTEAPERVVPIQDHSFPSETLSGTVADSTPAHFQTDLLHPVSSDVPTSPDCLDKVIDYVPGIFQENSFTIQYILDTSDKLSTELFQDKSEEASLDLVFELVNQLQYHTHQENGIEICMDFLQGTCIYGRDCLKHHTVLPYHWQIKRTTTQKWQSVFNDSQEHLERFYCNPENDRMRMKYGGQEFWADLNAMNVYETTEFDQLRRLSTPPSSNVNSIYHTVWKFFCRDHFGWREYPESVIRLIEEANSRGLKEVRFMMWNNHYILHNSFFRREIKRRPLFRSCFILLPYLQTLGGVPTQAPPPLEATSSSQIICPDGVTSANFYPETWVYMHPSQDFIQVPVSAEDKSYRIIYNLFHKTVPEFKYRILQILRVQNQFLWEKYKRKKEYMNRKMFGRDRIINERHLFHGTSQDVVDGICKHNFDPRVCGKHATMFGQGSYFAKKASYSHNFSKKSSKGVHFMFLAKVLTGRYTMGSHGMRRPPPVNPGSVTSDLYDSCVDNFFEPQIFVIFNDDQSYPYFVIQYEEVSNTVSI
Description: Enzymatic Assay. On the procedure: Displacement of Probe A, a biotinylated probe binding to the TIPARP active site, was measured using a time-resolved fluorescence energy transfer (TR-FRET) assay. 20 nL of a dose response curve of each test compound was spotted in black 384-well polystyrene proxiplates (Perkin Elmer) using a Mosquito (TTP Labtech). Reactions were performed in a 8 μl volume by adding 6 μL of TIPARP and Probe A in assay buffer (20 mM HEPES pH=8, 100 mM NaCl, 0.1% bovine serum albumin, 2 mM DTT and 0.002% Tween20), incubating with test compound at 25° C. for 30 min, then adding 2 μL of ULight-anti 6×His and LANCE Eu-W1024 labeled streptavidin (Perkin Elmer). The final concentrations of TIPARP and Probe A were 6 nM and 2 nM, respectively. The final concentration of ULight-anti 6×His and LANCE Eu-W1024 labeled streptavidin were 4 nM and 0.25 nM, respectively. Reactions were incubated at 25° C. for an additional 30 min, then read on an Envision platereader equipped with a LANCE/DELFIA top mirror (Perkin Elmer) using excitation of 320 nm and emission of 615 nm and […] with a […]. The ratio of the 665/615 nm emission were calculated for each well to determine the amount of complex of TIPARP and Probe Ain each well. […]

As for `C[C@@H](CO[C@H]1CCN(C2CCN(c3ncc(C(F)(F)F)cn3)CC2)C1=O)Nc1cn[nH]c(=O)c1Br` [US11691969, Example 23], the IC50 – broadly, the midpoint of a concentration-inhibition curve – is “in the range around 550 nM”.

The record behind these values is BindingDB's records for patent US11691969 (Ribon Therapeutics, 2023).
